Reference: patent US20230355644A1, “ACTIVE INGREDIENTS AND DRUGS FOR THE THERAPY OF VIRAL DISEASES, ESPECIALLY CORONA INFECTIONS, ESPECIALLY COVID-19” (Creative Therapeutics GmbH, priority 2020, published 2023)
Like-named read-outs stand apart in the source and are kept apart here.

Columns and labels:
SARS-CoV-2 [1] = assay: therapeutic effect against SARS-CoV-2 infection in mouse model; format: in vivo; conditions: K18-hACE2 transgenic mice; intra-peritoneal 150 mg/kg 30 minutes before and 500 mg/kg three hours after infection; two days post infection
Description: Studies of the Therapeutic Effect in the Mouse Model • To investigate the therapeutic effect of compound (VI-A) against SARS-CoV-2 infection in mouse model, K18-hACE2 transgenic mice were used. The viruses used were a German isolate of SARS-CoV-2. The study was conducted as a feasibility study with two groups (test group, control group) based on six mice each, i.e. a total of 12 animals. The two groups of mice were mildly anesthetized by inhalation of 3% isoflurane and intranasally inoculated with 300 KWSIU (FFU) of SARS-CoV-2. Treatment with the compound (VI-A) was performed by intra-peritoneal injection or application. Treatment of the first group began 30 minutes before infection with a compound concentration or dosage of 150 mg/kg. In addition, three hours after infection, the test mice were administered another 500 mg/kg of the compound (dissolved in 100 μl total volume of simply concentrated PBS buffer with pH 7.4). In the second group (positive control or control group), the mice were infected equally but treated with PBS buffer alone without the addition of diphenyl derivatives or triazenes (sham treatment). Two days post infection, the animals were euthanized. The clinical score (“clinical score”), comprising the recording of weight and clinical signs, of the animals was determined. To determine the success of therapy, the viral load in the lungs was determined by qPCR.

SARS-CoV-2 [2] = format: cell-based; conditions: Vero-E6 cells; dilutions 1/4000 to 1/500; FIGS. 3A and 3B
HI-viruses = assay: EASY-HIT assay; format: cell-based
[3] = test system: UWB1,289 ovarian cancer cells; assay: whole transcriptome sequencing (RNA-Seq) of treated ovarian cancer cells; format: cell-based; conditions: 24 hours; for CDKN1A transcription / DNA repair systems (MMR, BER, NER, ATM/ATR, HR) down-regulated at the transcription level / changes in the transcriptome versus non-treated controls (PCA plot, number of differentially transcribed genes) / expression of CDK family genes / CDK proteins / expression of DNA repair enzymes / transcripts of DNA repair systems: 1,000 μM compound (IV-A3) or 40 μM compound (III-A)
COVID-19 = conditions: in vivo; cited from earlier work
SARS-CoV-2 [4] = format: cell-based; conditions: Caco-2 cells; for decrease in viral load versus untreated cells (100%): strongest dilution 1/4000 (25 μg/ml)
[5] = dilutions 1/4000 to 1/500, FIGS. 2A and 2B

## CN(C)/N=N/c1ccc(C(=O)c2ccc(OCCC(=O)NCC(=O)O)cc2)cc1 [compound (VI-A)]
SARS-CoV-2 [1]
  histological examination of the lung tissue versus control group: significantly reduced incidence of infection
  viral load in the lungs by qPCR versus positive control group: significantly lower
SARS-CoV-2 [2]
  decrease in viral load in treated versus untreated cells: significant decrease in viral load
HI-viruses
  inhibitory effect on HI-viruses: first inhibitory effect

## CN(C)/N=N/c1ccc(C(=O)c2ccc(O)cc2)cc1 [compound (III-A)]
[3]
  CDKN1A transcription: consistent upregulation
  DNA repair systems (MMR, BER, NER, ATM/ATR, HR) down-regulated at the transcription level: −1.09 log 2FC
  changes in the transcriptome versus non-treated controls (PCA plot, number of differentially transcribed genes): sufficient change in the transcriptome
  expression of CDK family genes / CDK proteins: downregulation
  expression of DNA repair enzymes / transcripts of DNA repair systems: downregulation

## Tocilizumab: monoclonal antibody approved for the treatment of various forms of rheumatoid arthritis and cytokine release syndrome
COVID-19
  efficacy in COVID-19: ineffective

## CN(C)/N=N/c1ccc(C(=O)c2ccc(O)cc2)cc1 [compound (IV-B)]
SARS-CoV-2 [1]
  viral load in the lungs by qPCR versus positive control group: significantly reduced viral load in the lungs
SARS-CoV-2 [4]; [5]
  decrease in viral load in treated versus untreated cells: Particularly good results
SARS-CoV-2 [4]; FIG. 2A
  decrease in viral load versus untreated cells (100%): 50%
SARS-CoV-2 [4]; FIG. 2B
  decrease in viral load versus untreated cells (100%): 40%
SARS-CoV-2 [2]
  decrease in viral load in treated versus untreated cells: significant decrease in viral load
HI-viruses
  inhibitory effect on HI-viruses: first inhibitory effect

## CN(C)/N=N/c1ccc(C(=O)c2ccc(OCCC(=O)O)cc2)cc1 [compound (VIII-A)]
SARS-CoV-2 [1]
  viral load in the lungs by qPCR versus positive control group: significantly reduced viral load in the lungs
SARS-CoV-2 [4]; dilution of 1/500 (1000 μg/ml)
  decrease in viral load in treated versus untreated cells: best results in terms of viral load decrease
SARS-CoV-2 [4]; [5]
  decrease in viral load in treated versus untreated cells: Particularly good results
SARS-CoV-2 [2]
  decrease in viral load in treated versus untreated cells: greatest decrease in viral load
HI-viruses
  inhibitory effect on HI-viruses: first inhibitory effect

## CCN(CC)CCCC(C)Nc1ccnc2cc(Cl)ccc12 (stereo not drawn) [Chloroquine]
COVID-19
  efficacy in COVID-19: no evidence of efficacy

## CN(C)/N=N/c1ccc(C(=O)c2ccc(OS(=O)(=O)O)cc2)cc1 [compound (IV-A)]
SARS-CoV-2 [1]
  viral load in the lungs by qPCR versus positive control group: significantly reduced viral load in the lungs
HI-viruses
  inhibitory effect on HI-viruses: first inhibitory effect

## CCN(CCO)CCCC(C)Nc1ccnc2cc(Cl)ccc12 (stereo not drawn) [hydroxychloroquine]
COVID-19
  efficacy in COVID-19: no evidence of efficacy

## CN(C)N=Nc1ccc(C(=O)c2ccc(OS(=O)(=O)[O-])cc2)cc1.[Na+] [compound (IV-A3)]
[3]
  CDKN1A transcription: strongly induced
  DNA repair systems (MMR, BER, NER, ATM/ATR, HR) down-regulated at the transcription level: −1.09 log 2FC
  changes in the transcriptome versus non-treated controls (PCA plot, number of differentially transcribed genes): more pronounced changes in the transcriptome than compound (III-A)
  expression of CDK family genes / CDK proteins: marked down regulation
  expression of DNA repair enzymes / transcripts of DNA repair systems: extensive downregulation
[3]; 1,000 μM compound (IV-A3), genes differentially expressed in both UWB1,289 cell lines
  induction of CDKN1A: 4.49 log 2FC
[3]; 1,000 μM
  expression of cadherin cell adhesion molecule genes, particularly CDH6: downregulated
[3]; 1,000 μM, both cell lines
  expression of DNA dealkylation pathway proteins (APEX1, TET1, ALKBH2): consistently downregulated
